molecular target: T1, PIP4K2C (Homo sapiens, UniProt Q8TBX8); assay: HiBiT PIP4K2C degradation assay in MOLT-4 cells (endogenous PIP4K2C C-terminally tagged with HiBiT); format: cell-based; set-up: untagged in primary human PBMCs and monocyte-derived dendritic cells; conditions: 24 hours incubation, MOLT-4, top concentration 10 micromolar; read-out: HiBIT-degradation MOLT4 PIP4k2C 24 hours DC50
T1 sequence (Q8TBX8 1-421): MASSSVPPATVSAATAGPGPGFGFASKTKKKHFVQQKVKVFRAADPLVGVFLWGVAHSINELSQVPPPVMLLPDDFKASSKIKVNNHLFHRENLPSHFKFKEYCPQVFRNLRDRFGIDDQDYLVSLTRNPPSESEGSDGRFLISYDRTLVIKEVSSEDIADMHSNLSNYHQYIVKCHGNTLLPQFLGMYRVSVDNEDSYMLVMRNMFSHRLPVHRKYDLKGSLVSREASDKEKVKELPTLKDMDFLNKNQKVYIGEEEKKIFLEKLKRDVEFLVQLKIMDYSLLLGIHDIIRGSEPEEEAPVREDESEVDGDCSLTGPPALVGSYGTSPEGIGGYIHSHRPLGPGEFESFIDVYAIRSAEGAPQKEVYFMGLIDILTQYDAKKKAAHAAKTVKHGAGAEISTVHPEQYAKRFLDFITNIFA
Text: Example B-2: HiBiT PIP4K2C degradation assay
Materials: MOLT-4, a human T lymphoblast cell line (see https://www.atcc.org/products/crl-1582, herein incorporated by reference in its entirety), was genetically engineered using CRISPR-Cas9 by Synthego Corporation (Redwood City, CA) to C-terminally tag endogenous PIP4K2C with HiBiT peptide. Following clonal selection, genotype was confirmed by Sanger sequencing. MO LT-4 were maintained using RPMI-1640 medium from Gibco (Grand Island, NY, catalog number 11875-085) supplemented with 10% fetal bovine serum (FBS) from VWR (Philadelphia, PA, catalog number 97068-085). For HiBiT assays the cells were resuspended in RPMI-1640 medium without phenol read from Gibco (Grand Island, NY, catalog number 11835-030) supplemented with 10% FBS. Nano-Glo® HiBiT Lytic Assay System was purchased from Promega (Madison, WI, Catalog number N3030). Cell culture flasks and 384-well microplates were purchased from Corning (Glendale, AZ).
To study PIP4K2C degradation, 384-well plates were plated with a 10-point dose response curve, 3-fold dilution, in duplicate with a top starting concentration of 10 micromolar. Subsequently 22,500 cells were added to each well and incubated at 37 C in 5% C02 for 24 hours or 6 hours. At the end of the incubation time, cells were treated with the Nano-Glo® HiBiT Lytic Detection System following the manufacturer's instructions. Luminescence was measured with a PHERAstar FSX plate reader (BMG Labtech, Cary, NC). The Levenberg-Marquardt algorithm was used to fit a Hill equation to dose-response data to calculate DC50 values (see Table 6).

| Compound | DC50 |
| --- | --- |
| O=C1CCC(N2Cc3cc(OC4CCN(C(=O)CN5CCN(C(=O)[C@H]6CCC[C@@H](Nc7ncc(Cl)c(-c8cccc(-c9ccccc9)c8)n7)C6)CC5)CC4)ccc3C2=O)C(=O)N1 (relative stereo) [Compound 82, cis-3-(5-((1-(2-(4-(3-((4-([1,1′-biphenyl]-3-yl)-5-chloropyrimidin-2-yl)amino)cyclohexane-1-carbonyl)piperazin-1-yl)acetyl)piperidin-4-yl)oxy)-1-oxoisoindolin-2-yl)piperidine-2,6-dione] | < 500 nM |
| Cn1c(=O)n(C2CCC(=O)NC2=O)c2ccc(C3CCN(CCC4CCN(C(=O)[C@H]5CCC[C@@H](Nc6ncc(Cl)c(-c7cccc(-c8ccc(F)cc8)c7)n6)C5)CC4)CC3)cc21 (relative stereo) [Compound 279, cis-3-(5-(1-(2-(1-(3-((5-chloro-4-(4′-fluoro-[1,1′-biphenyl]-3-yl)pyrimidin-2-yl)amino)cyclohexane-1-carbonyl)piperidin-4-yl)ethyl)piperidin-4-yl)-3-methyl-2-oxo-2,3-dihydro-1H-benzo[d]imidazol-1-yl)piperidine-2,6-dione] | < 500 nM |
| O=C1CCC(Nc2ccc(C3CCN(CC(=O)N4CCC5(C4)CN(C(=O)[C@H]4CCC[C@@H](Nc6ncc(Cl)c(-c7cccc(-c8ccc(F)cc8)c7)n6)C4)C5)CC3)c(F)c2)C(=O)N1 (relative stereo) [Compound 284, cis-3-((4-(1-(2-(2-(3-((5-chloro-4-(4′-fluoro-[1,1′-biphenyl]-3-yl)pyrimidin-2-yl)amino)cyclohexane-1-carbonyl)-2,6-diazaspiro[3.4]octan-6-yl)-2-oxoethyl)piperidin-4-yl)-3-fluorophenyl)amino)piperidine-2,6-dione] | < 500 nM |
| Cn1c(=O)n(C2CCC(=O)NC2=O)c2ccc(C3CCN(CCC4CCN(C(=O)[C@H]5CCC[C@@H](Nc6ncc(F)c(-c7cccc(-n8ccccc8=O)c7)n6)C5)CC4)CC3)cc21 (relative stereo) [Compound 291, cis-3-(5-(1-(2-(1-(3-((5-fluoro-4-(3-(2-oxopyridin-1(2H)-yl)phenyl)pyrimidin-2-yl)amino)cyclohexane-1-carbonyl)piperidin-4-yl)ethyl)piperidin-4-yl)-3-methyl-2-oxo-2,3-dihydro-1H-benzo[d]imidazol-1-yl)piperidine-2,6-dione] | < 500 nM |
| O=C1CCC(Oc2ccc(N3CCC(O)(CC(=O)N4CCN(C(=O)[C@H]5CCC[C@@H](Nc6ncc(Cl)c(-c7cccc(-c8ccc(F)cc8)c7)n6)C5)CC4)CC3)c(F)c2)C(=O)N1 (relative stereo) [Compound 292, cis-3-(4-(4-(2-(4-(3-((5-chloro-4-(4′-fluoro-[1,1′-biphenyl]-3-yl)pyrimidin-2-yl)amino)cyclohexane-1-carbonyl)piperazin-1-yl)-2-oxoethyl)-4-hydroxypiperidin-1-yl)-3-fluorophenoxy)piperidine-2,6-dione] | > 5000 nM |
| O=C1CCC(Nc2ccc(N3CCC(N4CCC(CNC(=O)[C@H]5CCC[C@@H](Nc6ncc(F)c(-c7cccc(-n8ccccc8=O)c7)n6)C5)CC4)CC3)cc2)C(=O)N1 (relative stereo) [Compound 297, cis-N-((1′-(4-((2,6-dioxopiperidin-3-yl)amino)phenyl)-[1,4′-bipiperidin]-4-yl)methyl)-3-((5-fluoro-4-(3-(2-oxopyridin-1(2H)-yl)phenyl)pyrimidin-2-yl)amino)cyclohexane-1-carboxamide] | < 500 nM |
| Cn1nc(C2CCC(=O)NC2=O)c2ccc(C3CCN(CCC4CCN(C(=O)[C@H]5CCC[C@@H](Nc6ncc(F)c(-c7cccc(-n8ccccc8=O)c7)n6)C5)CC4)CC3)cc21 (relative stereo) [Compound 298, 3-(6-(1-(2-(1-(cis-3-((5-fluoro-4-(3-(2-oxopyridin-1(2H)-yl)phenyl)pyrimidin-2-yl)amino)cyclohexane-1-carbonyl)piperidin-4-yl)ethyl)piperidin-4-yl)-1-methyl-1H-indazol-3-yl)piperidine-2,6-dione] | < 500 nM |
| O=C1CCC(n2c(=O)oc3cc(N4CCC(N5CCC(CNC(=O)[C@H]6CCC[C@@H](Nc7ncc(F)c(-c8cccc(-n9ccccc9=O)c8)n7)C6)CC5)CC4)ccc32)C(=O)N1 (relative stereo) [Compound 299, cis-N-((1′-(3-(2,6-dioxopiperidin-3-yl)-2-oxo-2,3-dihydrobenzo[d]oxazol-6-yl)-[1,4′-bipiperidin]-4-yl)methyl)-3-((5-fluoro-4-(3-(2-oxopyridin-1(2H)-yl)phenyl)pyrimidin-2-yl)amino)cyclohexane-1-carboxamide] | < 500 nM |
| O=C1CCC(n2c(=O)oc3cc(C4CCN(C[C@H]5CC[C@H](NC(=O)[C@H]6CCC[C@@H](Nc7ncc(F)c(-c8cccc(-n9ccccc9=O)c8)n7)C6)CC5)CC4)ccc32)C(=O)N1 (relative stereo) [Compound 306, cis-trans-N-(4-((4-(3-(2,6-dioxopiperidin-3-yl)-2-oxo-2,3-dihydrobenzo[d]oxazol-6-yl)piperidin-1-yl)methyl)cyclohexyl)-3-((5-fluoro-4-(3-(2-oxopyridin-1(2H)-yl)phenyl)pyrimidin-2-yl)amino)cyclohexane-1-carboxamide] | < 500 nM |
| Cn1nc(C2CCC(=O)NC2=O)c2ccc(C3CCN(C[C@H]4CC[C@H](NC(=O)[C@H]5CCC[C@@H](Nc6ncc(F)c(-c7cccc(-n8ccccc8=O)c7)n6)C5)CC4)CC3)cc21 (relative stereo) [Compound 307, cis-trans-N-(4-((4-(3-(2,6-dioxopiperidin-3-yl)-1-methyl-1H-indazol-6-yl)piperidin-1-yl)methyl)cyclohexyl)-3-((5-fluoro-4-(3-(2-oxopyridin-1(2H)-yl)phenyl)pyrimidin-2-yl)amino)cyclohexane-1-carboxamide] | 1000 to 5000 nM |

Other lines, results leading:

| DC50 | Compound |
| --- | --- |
| < 500 nM | O=C1CCC(Nc2ccc(C3CCN(CC4CCN(C(=O)[C@H]5CCC[C@@H](Nc6ncc(Cl)c(-c7cccc(-c8ccccc8)c7)n6)C5)CC4)CC3)cc2)C(=O)N1 (relative stereo) [Compound 65, cis-3-((4-(1-((1-(3-((4-([1,1′-biphenyl]-3-yl)-5-chloropyrimidin-2-yl)amino)cyclohexane-1-carbonyl)piperidin-4-yl)methyl)piperidin-4-yl)phenyl)amino)piperidine-2,6-dione] |
| < 500 nM | O=C1CCC(N2Cc3cc(OC4CCN(CC5CCN(C(=O)[C@H]6CCC[C@@H](Nc7ncc(Cl)c(-c8cccc(-c9ccccc9)c8)n7)C6)CC5)CC4)ccc3C2=O)C(=O)N1 (relative stereo) [Compound 76, cis-3-(5-((1-((1-(3-((4-([1,1′-biphenyl]-3-yl)-5-chloropyrimidin-2-yl)amino)cyclohexane-1-carbonyl)piperidin-4-yl)methyl)piperidin-4-yl)oxy)-1-oxoisoindolin-2-yl)piperidine-2,6-dione] |
| < 500 nM | O=C1CCC(N2Cc3cc(OC4CCN(CCC5CCN(C(=O)[C@H]6CCC[C@@H](Nc7ncc(Cl)c(-c8cccc(-c9ccccc9)c8)n7)C6)CC5)CC4)ccc3C2=O)C(=O)N1 (relative stereo) [Compound 79, cis-3-(5-((1-(2-(1-(3-((4-([1,1′-biphenyl]-3-yl)-5-chloropyrimidin-2-yl)amino)cyclohexane-1-carbonyl)piperidin-4-yl)ethyl)piperidin-4-yl)oxy)-1-oxoisoindolin-2-yl)piperidine-2,6-dione] |
| < 500 nM | O=C1CCC(N2Cc3cc(OC4CCN(CCN5CCN(C(=O)[C@H]6CCC[C@@H](Nc7ncc(Cl)c(-c8cccc(-c9ccccc9)c8)n7)C6)CC5)CC4)ccc3C2=O)C(=O)N1 (relative stereo) [Compound 80, cis-3-(5-((1-(2-(4-(3-((4-([1,1′-biphenyl]-3-yl)-5-chloropyrimidin-2-yl)amino)cyclohexane-1-carbonyl)piperazin-1-yl)ethyl)piperidin-4-yl)oxy)-1-oxoisoindolin-2-yl)piperidine-2,6-dione] |
| < 500 nM | O=C1CCC(N2Cc3cc(OC4CCN(C(=O)CC5CCN(C(=O)[C@H]6CCC[C@@H](Nc7ncc(Cl)c(-c8cccc(-c9ccccc9)c8)n7)C6)CC5)CC4)ccc3C2=O)C(=O)N1 (relative stereo) [Compound 81, cis-3-(5-((1-(2-(1-(3-((4-([1,1′-biphenyl]-3-yl)-5-chloropyrimidin-2-yl)amino)cyclohexane-1-carbonyl)piperidin-4-yl)acetyl)piperidin-4-yl)oxy)-1-oxoisoindolin-2-yl)piperidine-2,6-dione] |

Source: patent US20260355196A1, “INHIBITORS AND DEGRADERS OF PIP4K PROTEIN” (Larkspur Biosciences, Inc., priority 2023, published 2026)
